Data as given in PubChem BioAssay AID1288 (Columbia University Molecular Screening Center, 2008).
Activity calls are given as the source filed them. How the calls were made is not given here.

Experiment: E-selectin induction blockers, endothelial cells – imaging, retest plus dose response, cell count, confirmation (AID 1288);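 further: 0% = stimulated vehicle wells and 100% = unstimulated vehicle wells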
Settings: human endothelial cells, TNFa-induced E-selectin, imaging; at 2 µM; stronger effect = higher value

Row | Structure (SMILES) | inhibition
1 | c1ccc(-n2c(-c3ccncc3)nnc2N2CCOCC2)cc1 | 5.7% (inactive)
2 | CCCOc1ccc(NC(=O)C(=O)NCCCn2ccnc2)cc1 | 42.5% (inactive)
3 | CCCCc1c(O)nc(SCC(=O)Nc2ccc3c(c2)CCC3)[nH]c1=O | 14.6% (inactive)
4 | Cc1ccc(C2CC(=O)N(c3ccc(F)cc3)C3=C2C(=O)CCC3)cc1 (stereo not given) | 4.74% (inactive)
5 | CCN(CC)c1ccc(NC(=O)C2CC3CCC2C3)cc1 (stereo not given) | 24.7% (inactive)
6 | CC(Sc1nnc(-c2cccs2)n1Cc1ccccc1)C(=O)NCc1ccc2c(c1)OCO2 (stereo not given) | 1.65% (inactive)
7 | CN1CCC(N(C)C(=S)NC(=O)C23CC4CC(CC(C4)C2)C3)CC1 | 28.5% (inactive)
8 | CCOC(=O)C1=C(c2ccccc2)N(C)C(=O)NC1c1ccc(O)c(OC)c1 (stereo not given) | 8.42% (inactive)
9 | CC1CN(C(=O)/C(C#N)=C2\N=C(NC(=O)c3ccccc3Cl)c3ccccc32)CC(C)O1 (stereo not given) | -0.23% (inactive)
10 | CCOc1ccc(N2CC(C(=O)NCCCN3CCOCC3)CC2=O)cc1 (stereo not given) | 11.2% (inactive)
11 | O=C(O)C(=O)/C(=C\c1ccccc1)c1ccc2ccccc2n1 | 23.7% (inactive)
12 | Cc1cccc(NC(=O)Nc2ccc(C#N)cc2)n1 | 4.19% (inactive)
13 | COc1cccc(-n2c(SC3CCOC3=O)nc3ccccc3c2=O)c1 (stereo not given) | 27.9% (inactive)
14 | O=C(COC(=O)CCc1ccc(S(=O)(=O)N2CCOCC2)cc1)NC1CCCC1 | 2.85% (inactive)
15 | CCOC(=O)N(c1ccccc1)P1(=S)OCCO1 | 10.4% (inactive)
16 | N/C(=N\S(=O)(=O)c1cccs1)c1ccccc1 | 13.7% (inactive)
17 | COc1cccc(/C=C/C(=O)OCC(=O)Nc2ccc(Cl)c(S(=O)(=O)N(C)C)c2)c1 | 2.19% (inactive)
18 | Clc1ccc(Nc2nc3cccnc3s2)cc1 | 7.79% (inactive)
19 | CCCOC(=O)c1ccc(Cl)c(NC(=O)c2ccc(-c3ccccc3)cc2)c1 | 1.66% (inactive)
20 | CN=C(C)C1=C(O)C(C(=O)OC)C(C)(C)CC1=O (stereo not given) | -0.09% (inactive)

Row | Structure (SMILES) | inhibition
21 | CCCN1CCc2[nH]c(=S)[nH]c(=O)c2C1 | -2.07% (inactive)
22 | COc1ccc(C(=O)C(CO)Oc2ccccc2OC)cc1OC (stereo not given) | 1.41% (inactive)
23 | CCCCN1C(=O)C2C3C=CC(C2C1=O)C1C2C(=O)N(CCCC)C(=O)C2C31 (stereo not given) | 28.4% (inactive)
24 | COc1ccc(-n2nnnc2SCc2nc(N)nc(N3CCOCC3)n2)cc1 | 33.7% (inactive)
25 | O=c1cc(CO)oc(C(Nc2ccccn2)c2ccccc2F)c1O (stereo not given) | 13.7% (inactive)
26 | Cc1ccc(/C=C/C(=O)C2C(=O)c3ccccc3C2=O)cc1 | 23.7% (inactive)
27 | O=C(O)COc1ccc(/C=N/n2cnc3scc(-c4cccs4)c3c2=O)cc1 | 5.08% (inactive)
28 | CCCCOC(=O)CCn1c(=S)oc2ccccc21 | 1.96% (inactive)
29 | Cn1c(NCCN2CCCCC2)cc(=O)n(C)c1=O | 22.7% (inactive)
30 | S=C(NCc1cccs1)Nc1cccc(Cl)c1Cl | 8.76% (inactive)
31 | Cc1oc2c(C)c(O)ccc2c(=O)c1-c1cnn(-c2ccccc2)c1 | -7.41% (inactive)
32 | CSc1ccc(/C=N/NC(=O)CN2CCN(Cc3ccc(C)cc3)CC2)cc1 | -1.62% (inactive)
33 | CCOc1cccc(C(=O)NC(=S)Nc2ccc(N3CCCC3)cc2)c1 | 10.5% (inactive)
34 | CC(C)n1c(SCC(=O)Nc2nc3c(s2)CCCC3)nc2c1c(=O)n(C)c(=O)n2C | 3.36% (inactive)
35 | C=CCn1c(COc2ccccc2)nnc1SCC(=O)O | 11.9% (inactive)
36 | O=C(O)C1C2C=CC(C2)C1C(=O)NCCCc1ccccc1 (stereo not given) | 3.67% (inactive)
37 | Cc1ccc(S(=O)(=O)Nc2ccc(NC(=O)Nc3ccc(F)cc3F)cc2)cc1 | 37.3% (inactive)
38 | Cc1ccc2oc(=O)n(CCCOc3ccccc3)c2c1 | 26.2% (inactive)
39 | O=C(c1cccc(F)c1)N1CCN(c2cc(N3CCCCC3)c(F)cc2[N+](=O)[O-])CC1 | 4.49% (inactive)
40 | O=C(Nc1ccc(Cl)cc1)c1cc2nc(-c3ccco3)cc(C(F)(F)F)n2n1 | 14.3% (inactive)
